Data taken from patent US20170217976A1, “6-(AMINO ACID)-MORPHINAN DERIVATIVES IN COMBINATION WITH PERMEATION […] FOR USE AS AN ORALLY, […], TRA[…] NASALLY AD[…]” (C[…], priority 2014, published 2017).
Where two headings read alike, the source gives them in different places.

Tests used:
human MOR = molecular target: T1, human MOR (Homo sapiens, UniProt P35372); experiment: biochemical; type: biochemical; details: for Emax: read-out: [35S]GTPγS binding, MOR % stim.
T1 construct: expressed in transfected cells; host or cells: CHO cells
T1 sequence (P35372 whole entry): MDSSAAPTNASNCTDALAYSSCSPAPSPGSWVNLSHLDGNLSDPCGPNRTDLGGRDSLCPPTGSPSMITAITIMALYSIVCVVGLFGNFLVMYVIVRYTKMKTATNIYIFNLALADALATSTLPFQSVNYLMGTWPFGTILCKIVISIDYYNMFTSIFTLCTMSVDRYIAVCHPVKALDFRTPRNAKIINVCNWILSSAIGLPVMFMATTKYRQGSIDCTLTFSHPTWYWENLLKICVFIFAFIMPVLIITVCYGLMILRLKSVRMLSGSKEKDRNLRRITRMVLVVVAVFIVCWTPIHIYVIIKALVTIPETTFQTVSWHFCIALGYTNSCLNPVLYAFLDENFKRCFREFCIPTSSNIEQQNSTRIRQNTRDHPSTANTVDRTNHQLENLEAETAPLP
Protocol: A number of compounds were evaluated for agonist potency and efficacy at the MOR using the [^35S]GTPγS functional assay in CHO cells expressing human MOR receptors.

KOR = molecular target: T2, KOR (Cavia porcellus, UniProt P41144); experiment: Opioid receptor binding, KOR, guinea pig brain membranes
T2 construct: from tissue
T2 sequence (P41144 whole entry): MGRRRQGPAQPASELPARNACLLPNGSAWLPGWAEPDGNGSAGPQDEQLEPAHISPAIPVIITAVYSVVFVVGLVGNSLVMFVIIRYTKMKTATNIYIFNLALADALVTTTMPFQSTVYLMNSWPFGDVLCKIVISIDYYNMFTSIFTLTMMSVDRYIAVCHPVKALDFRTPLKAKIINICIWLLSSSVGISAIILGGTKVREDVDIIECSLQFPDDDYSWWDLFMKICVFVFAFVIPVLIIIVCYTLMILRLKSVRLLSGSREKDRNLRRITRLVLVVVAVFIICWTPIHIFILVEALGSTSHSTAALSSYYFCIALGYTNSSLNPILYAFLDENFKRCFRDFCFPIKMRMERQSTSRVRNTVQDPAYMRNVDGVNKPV

DOR = molecular target: T3, DOR (Rattus norvegicus, UniProt P33533); experiment: Opioid receptor binding, DOR, rat brain membranes
T3 construct: from tissue
T3 sequence (P33533 whole entry): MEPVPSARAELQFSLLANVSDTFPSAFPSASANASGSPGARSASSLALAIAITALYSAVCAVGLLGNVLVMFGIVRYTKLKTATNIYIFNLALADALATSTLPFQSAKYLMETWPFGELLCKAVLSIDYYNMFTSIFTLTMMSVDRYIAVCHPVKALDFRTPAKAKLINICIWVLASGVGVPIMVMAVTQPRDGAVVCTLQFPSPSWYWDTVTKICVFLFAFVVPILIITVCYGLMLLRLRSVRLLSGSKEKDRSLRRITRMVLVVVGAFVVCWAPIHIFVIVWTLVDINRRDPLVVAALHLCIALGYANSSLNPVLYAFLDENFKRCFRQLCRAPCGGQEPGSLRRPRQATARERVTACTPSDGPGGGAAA

MOR = molecular target: T4, MOR (Rattus norvegicus, UniProt P33535); experiment: Opioid receptor binding, MOR, rat brain membranes
T4 construct: from tissue
T4 sequence (P33535 whole entry): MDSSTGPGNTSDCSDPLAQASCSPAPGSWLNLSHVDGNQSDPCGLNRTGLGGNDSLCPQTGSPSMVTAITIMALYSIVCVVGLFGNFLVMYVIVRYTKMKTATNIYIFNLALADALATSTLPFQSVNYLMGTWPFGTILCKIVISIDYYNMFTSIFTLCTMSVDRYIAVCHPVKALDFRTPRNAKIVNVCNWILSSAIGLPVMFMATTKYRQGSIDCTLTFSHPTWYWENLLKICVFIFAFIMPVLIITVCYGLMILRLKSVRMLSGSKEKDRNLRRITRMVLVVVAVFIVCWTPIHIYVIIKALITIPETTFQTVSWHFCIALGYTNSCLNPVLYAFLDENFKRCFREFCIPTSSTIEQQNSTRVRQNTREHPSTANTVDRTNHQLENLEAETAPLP

[1] = molecular target: T5, human MOP expressed in CHO cells (Homo sapiens, UniProt P35372); experiment: [35S]GTPγS binding, antagonism at MOR (Ke against DAMGO); type: biochemical; details: for Kb: Table 1-6, antagonist Ke measured against DAMGO
T5 construct: expressed in transfected cells; host or cells: CHO cells (per the unit's head)
T5 sequence (P35372 whole entry): as the sequence (P35372 whole entry) above

[2] = test system: mouse vas deferens preparation; experiment: Mouse vas deferens bioassay; details: for IC50: read-out: IC50, agonist potency in mouse vas deferens
Protocol: The mouse vas deferens bioassay was performed as described in: M. Spetea et al., Eur. J. Pharmacol. 2004, 483, 301-308

rats = experiment: Tail-flick test in rats after oral administration; type: in vivo, rat; details: for ED50: Rattus norvegicus, po
Protocol: The rat tail-flick test was performed as described in: S. Furst et. al. J. Pharmacol. Exp. Ther. 2005, 312, 609-618

[3] = pH-metric determination of pKa, logP and logD in octanol/water (PCA200/Cheqsol); type: physicochemical
Protocol: All titrations were performed in 0.15M KCl solution under argon gas. The pKa was determined by the shape of the titration curve and partition coefficients were determined by the shift in titration curve of pKa in the presence of octanol. The analysis of pH-metric data was performed by RefinementPro software (version 2.0, Sirius, Sussex, UK).

[4] = Permeation study through rat small intestine in Ussing type diffusion chambers; type: in vitro ADME; details: apical to basolateral, pH 7.5, no permeation enhancer, three hours incubation
Protocol: Ussing type diffusion chambers with a surface area of 0.64 cm^2 were utilized. Rat small intestine was excised immediately after sacrificing the animal and mounted in the chamber. The donor and acceptor compartments of the chamber were filled with 1.0 ml of the freshly prepared incubation medium containing either 40 mM HEPES buffer (HEPES=2-(4-(2-hydroxyethyl)-1-piperazinyl)-ethane sulfonic acid) adjusted to pH 7.5 or 6.5 or 50 mM sodium acetate buffer adjusted to pH 5.5. […] The samples were centrifuged at 7,200 g for 5 minutes and the supernatant was analyzed via HPLC. Cumulative corrections were performed for the previously removed samples to determine the total amount permeated.

[5] = Riba P. et al. 2010, cited from earlier work
[6] = cited from earlier work
[7] = Binding Ki (nM) KOR, in vitro binding assay, guinea pig brain membranes
[8] = Binding Ki (nM) DOR, in vitro binding assay, rat brain membranes
[9] = Binding Ki (nM) MOR, in vitro binding assay, rat brain membranes
[10] = Binding Ki KOR, Table 1-6, guinea pig brain membranes
[11] = Binding Ki KOR, Table 2-6, guinea pig brain membranes
[12] = Binding Ki DOR, Table 1-6, rat brain membranes
[13] = Binding Ki DOR, Table 2-6, rat brain membranes
[14] = Binding Ki MOR, Table 1-6, rat brain membranes
[15] = Binding Ki MOR, Table 2-6, rat brain membranes
[16] = read-out: [35S]GTPγS binding, MOR Ke
[17] = 0.5 h, read-out: ED50 (p.o., mg/kg) 30 min, 30 min
[18] = read-out: ED50 (p.o., mg/kg) 1 h, 1 h
[19] = read-out: ED50 (p.o., mg/kg) 2 h, 2 h
[20] = read-out: ED50 (p.o., mg/kg) 3 h, 3 h

| Compound | EC50 [1] [nM] | Kb ([1]; [35S]GTPγS binding, MOR Ke) [nM] | Ki (KOR; [10]) [nM] | Ki (KOR; [11]) [nM] | Ki (DOR; [12]) [nM] | Ki (DOR; [13]) [nM] | Ki (MOR; [14]) [nM] | Ki (MOR; [15]) [nM] | other results |
| --- | --- | --- | --- | --- | --- | --- | --- | --- | --- |
| CO[C@@]12CC[C@@H](N[C@@H](Cc3c[nH]c4ccccc34)C(=O)O)[C@@H]3Oc4c(O)ccc5c4[C@@]31CCN(C)[C@@H]2C5 [Compound 46] | – | – | – | – | – | – | – | – | EC50 (human MOR; Table 1-4, human MOP expressed in CHO cells, read-out: [35S]GTPγS binding, MOR EC50): 0.61 nM; Emax (human MOR; Table 1-4, measured against DAMGO): 112%; Ki (KOR; [7]): 8.66 nM; Ki (KOR; Binding Ki KOR, Table 1-4, guinea pig brain membranes): 8.66 nM; Ki (DOR; [8]): 1.19 nM; Ki (DOR; Binding Ki DOR, Table 1-4, rat brain membranes): 1.19 nM; Ki (MOR; [9]): 0.65 nM; Ki (MOR; Binding Ki MOR, Table 1-4, rat brain membranes): 0.65 nM |
| CO[C@@]12CC[C@H](NCC(=O)O)[C@@H]3Oc4c(O)ccc5c4[C@@]31CCN(CC1CC1)[C@@H]2C5 [Compound 61] | > 10000 | 0.63 | 4.65 | 4.65 | 5.15 | 5.15 | 0.68 | 0.68 | – |
| CO[C@@]12CC[C@@H](NCC(=O)O)[C@@H]3Oc4c(O)ccc5c4[C@@]31CCN(CC1CC1)[C@@H]2C5 [Compound 62] | > 10000 | 0.19 | 9.31 | 9.31 | 4.76 | 4.76 | 1.31 | 1.31 | – |
| CO[C@@]12CC[C@H](NCCC(=O)O)[C@@H]3Oc4c(O)ccc5c4[C@@]31CCN(CC1CC1)[C@@H]2C5 [Compound 63] | > 10000 | 0.27 | 7.81 | 7.81 | 6.25 | 6.25 | 1.35 | 1.35 | – |
| CO[C@@]12CC[C@@H](NCCC(=O)O)[C@@H]3Oc4c(O)ccc5c4[C@@]31CCN(CC1CC1)[C@@H]2C5 [Compound 64] | > 10000 | 0.96 | 11.7 | 11.7 | 8.12 | 8.12 | 1.51 | 1.51 | – |
| CO[C@@]12CC[C@H](NCCCC(=O)O)[C@@H]3Oc4c(O)ccc5c4[C@@]31CCN(CC1CC1)[C@@H]2C5 [Compound 65] | > 10000 | – | 5.31 | 5.31 | 10.7 | 10.7 | 1.21 | 1.21 | Kb [1, 16]: 0.94 nM |
| CO[C@@]12CC[C@@H](NCCCC(=O)O)[C@@H]3Oc4c(O)ccc5c4[C@@]31CCN(CC1CC1)[C@@H]2C5 [Compound 66] | > 10000 | – | 16.8 | 16.8 | 10.2 | 10.2 | 3.36 | 3.36 | Kb [1, 16]: 1.06 nM |
| C[C@@H](NC(=O)[C@@H](N)Cc1ccc(O)cc1)C(=O)NCC(=O)N(C)[C@@H](Cc1ccccc1)C(=O)NCCO [DAMGO, reference compound] | – | – | – | – | – | – | – | – | IC50 [2]: 76.6 nM |
| CCO.CO[C@@]12CC[C@@H](NCC(=O)O)[C@@H]3Oc4c(O)ccc5c4[C@@]31CCN(C)[C@@H]2C5.Cl.Cl.O [HS731, 2-[(4,5α-EPOXY-3-HYDROXY-14β-METHOXY-17-METHYLMORPHINAN-6β-YL)AMINO]ACETIC ACID DIHYDROCHLORIDE HYDRATE ETHANOLATE] | – | – | – | – | – | – | – | – | EC50 (human MOR): 3.88 nM; Emax (human MOR): 107%; ED50 (rats; [17]): 21 mg/kg; ED50 (rats; [18]): 5.52 mg/kg; ED50 (rats; [19]): 6.78 mg/kg; ED50 (rats; [20]): 6.33 mg/kg; pKa ([3]; […] KCl solution (aqueous titration), 25° C., 0.15M KCl): 2.4; logP ([3]; octanol/water, 25° C.): -0.78; logD ([3]; octanol/water, pH 7.4, 25° C.): -2.06; IC50 ([2]; Mus musculus): 7 nM; permeation through rat intestinal mucosa [4]: 11% |
| CCOC(=O)CN[C@@H]1CC[C@@]2(OC)[C@H]3Cc4ccc(O)c5c4[C@@]2(CCN3C)[C@H]1O5 [HS731-Et ester] | – | – | – | – | – | – | – | – | ED50 (rats; [17]): > 2.5 mg/kg; ED50 (rats; [18]): 2.34 mg/kg; ED50 (rats; [19]): 0.85 mg/kg; ED50 (rats; [20]): 0.71 mg/kg; ED50 (rats; read-out: ED50 (p.o., mg/kg) 4 h, 4 h): 0.82 mg/kg; antinociceptive potency, fold higher than HS731 after 1 h (rats; p.o., 1 h, relative to HS731): ca. 2 fold; antinociceptive potency, fold higher than HS731 after 2 h (rats; p.o., 2 h, relative to HS731): ca. 8 fold; antinociceptive potency, fold higher than HS731 after 3 h (rats; p.o., 3 h, relative to HS731): ca. 9 fold; Ki (KOR; [7]): 21.9 nM; Ki (DOR; [8]): 0.81 nM; IC50 ([2]; Mus musculus): 23.8 nM; times less potent than HS731 in mouse vas deferens bioassay ([2]; relative to HS731): about 3.5; Ki (MOR; [9]): 0.74 nM |
| CN1CC[C@]23c4c5ccc(O)c4O[C@H]2C(=O)CC[C@@]3(O)[C@H]1C5 [OMO, oxymorphone] | – | – | – | – | – | – | – | – | logD (pH = 7.4) ([5]; pH 7.4, published data): −0.32; logP ([5]; published data): 0.67; pKa ([5]; published data): 8.33 |
| C[C@H]1CN(C[C@H](Cc2ccccc2)C(=O)NCC(=O)O)CC[C@@]1(C)c1cccc(O)c1 [alvimopan] | – | – | – | – | – | – | – | – | oral bioavailability [6]: approx. 6% |
